Reference: US10568884B2, “Compounds and compositions as protein kinase inhibitors” (Array BioPharma, Inc., priority 2009, dated 2020)

Test system: A375 melanoma cell line (B-Raf V600E)
Test: A375 Cellular Proliferation Assay (A375 CP)
Type: cell-based
Conditions: Homo sapiens, A-375, 48 h; A375-luc cells, 2 days; read-out: A375 CP IC50
Method: A375-luc cells engineered to express luciferase are plated to 384-well white clear bottom plates as 1,500 cells/50 μl/well in DMEM containing 10% FBS. Compounds of the invention dissolved in 100% DMSO at appropriate concentrations are transferred to the cells by a robotic Pin Tool (100 nl). The cells are incubated for 2 days at […], then 25 μl of BrightGlo™ is added to each well and the plates are read by luminescence.

SMILES | IC50
CCCS(=O)(=O)Nc1cc(Cl)cc(-c2nn(C(C)C)cc2-c2ccnc(NC[C@H](C)NC(=O)OC)n2)c1 [Compound 5, methyl N-[(2S)-1-[(4-{3-[3-chloro-5-(propane-1-sulfonamido)phenyl]-1-(propan-2-yl)-1H-pyrazol-4-yl]pyrimidin-2-yl)amino]propan-2-yl]carbamate] | 1 nM
COC(=O)N[C@@H](C)CNc1nccc(-c2cn(C(C)C)nc2-c2cc(Cl)cc(NS(C)(=O)=O)c2Cl)n1 [Compound 22, methyl N-[(2S)-1-({4-[3-(2,5-dichloro-3-methanesulfonamidophenyl)-1-(propan-2-yl)-1H-pyrazol-4-yl]pyrimidin-2-yl}amino)propan-2-yl]carbamate] | 6 nM
COC(=O)N[C@@H](C)CNc1nccc(-c2cn(C(C)C)nc2-c2cc(Cl)cc(NS(=O)(=O)C3CC3)c2F)n1 [Compound 25, methyl N-[(2S)-1-({4-[3-(5-chloro-3-cyclopropanesulfonamido-2-fluorophenyl)-1-(propan-2-yl)-1H-pyrazol-4-yl]pyrimidin-2-yl}amino)propan-2-yl]carbamate] | 2 nM
COC(=O)N[C@@H](C)CNc1nccc(-c2cn(C(C)C)nc2-c2ccc(F)c(NS(C)(=O)=O)c2F)n1 [Compound 19, methyl N-[(2S)-1-({4-[3-(2,4-difluoro-3-methanesulfonamidophenyl)-1-(propan-2-yl)-1H-pyrazol-4-yl]pyrimidin-2-yl}amino)propan-2-yl]carbamate] | 93 nM
COC(=O)N[C@@H](C)CNc1nccc(-c2cn(C3CCCCO3)nc2-c2cc(Cl)cc(NS(C)(=O)=O)c2F)n1 (stereo partly drawn) [Compound 33, Methyl N-[(2S)-1-({4-(3-(5-chloro-2-fluoro-3-methanesulfonamidophenyl)-1-(oxan-2-yl)-1H-pyrazol-4-yl]pyrimidin-2-yl}amino)propan-2-yl]carbamate] | 7 nM
COC(=O)N[C@@H](C)CNc1nccc(-c2cn(C(C)C)nc2-c2cccc(NS(C)(=O)=O)c2)n1 [Compound 23, methyl N-[(2S)-1-({4-[3-(3-methanesulfonamidophenyl)-1-(propan-2-yl)-1H-pyrazol-4-yl]pyrimidin-2-yl}amino)propan-2-yl]carbamate] | 1150 nM
COC(=O)N[C@@H](C)CNc1nccc(-c2c[nH]nc2-c2cc(Cl)cc(NS(C)(=O)=O)c2F)n1 [Compound 31] | 180 nM
CCCS(=O)(=O)Nc1c(F)ccc(-c2nn(C(C)C)cc2-c2ccnc(NC[C@H](C)NC(=O)OC)n2)c1F [Compound 34] | 13 nM
COC(=O)N[C@@H](C)CNc1nccc(-c2cn(C(C)C)nc2-c2cccc(NS(C)(=O)=O)c2F)n1 [Compound 4, methyl N-[(2S)-1-({4-[3-(2-fluoro-3-methanesulfonamidophenyl)-1-(propan-2-yl)-1H-pyrazol-4-yl]pyrimidin-2-yl}amino)propan-2-yl]carbamate] | 33 nM
COC(=O)N[C@H](C)CNc1nccc(-c2cn(C(C)C)nc2-c2cc(Cl)cc(NS(C)(=O)=O)c2F)n1 [Compound 20, methyl N-[(2R)-1-({4-[3-(5-chloro-2-fluoro-3-methanesulfonamidophenyl)-1-(propan-2-yl)-1H-pyrazol-4-yl]pyrimidin-2-yl}amino)propan-2-yl]carbamate] | 7 nM
CC(C)n1cc(-c2ccnc(NCCN(C)C)n2)c(-c2cc(Cl)cc(NS(C)(=O)=O)c2F)n1 [Compound 28, N-{5-chloro-3-[4-(2-{[2-(dimethylamino)ethyl]amino}pyrimidin-4-yl)-1-(propan-2-yl)-1H-pyrazol-3-yl]-2-fluorophenyl}methanesulfonamide] | 550 nM
COC(=O)N[C@@H](C)CNc1nccc(-c2cn(C(C)C)nc2-c2c(F)ccc(NS(C)(=O)=O)c2F)n1 [Compound 6, methyl N-[(2S)-1-({4-[3-(2,6-difluoro-3-methanesulfonamidophenyl)-1-(propan-2-yl)-1H-pyrazol-4-yl]pyrimidin-2-yl]amino)propan-2-yl]carbamate] | 46 nM
CCS(=O)(=O)Nc1c(F)c(F)cc(-c2nn(C(C)C)cc2-c2ccnc(NC[C@H](C)NC(=O)OC)n2)c1Cl [Compound 18, methyl N-[(2S)-1-({4-[3-(2-chloro-3-ethanesulfonamido-4,5-difluorophenyl)-1-(propan-2-yl)-1H-pyrazol-4-yl]pyrimidin-2-yl}amino)propan-2-yl]carbamate] | 12 nM
COC(=O)N[C@@H](C)CNc1nccc(-c2cn(C(C)C)nc2-c2cc(Cl)cc(NS(C)(=O)=O)c2)n1 [Compound 2, methyl N-[(2S)-1-({4-[3-(3-chloro-5-methanesulfonamidophenyl)-1-(propan-2-yl)-1H-pyrazol-4-yl]pyrimidin-2-yl}amino)propan-2-yl]carbamate] | 18 nM
COC(=O)N[C@@H](C)CNc1nccc(-c2cn(C(C)C)nc2-c2cc(C)cc(NS(C)(=O)=O)c2F)n1 [Compound 12, methyl N-[(2S)-1-({4-[3-(2-fluoro-3-methanesulfonamido-5-methylphenyl)-1-(propan-2-yl)-1H-pyrazol-4-yl]pyrimidin-2-yl]amino)propan-2-yl]carbamate] | 4 nM
CCS(=O)(=O)Nc1c(F)ccc(-c2nn(C(C)C)cc2-c2ccnc(NC[C@H](C)NC(=O)OC)n2)c1F [Compound 26, methyl N-[(2S)-1-({4-[3-(3-ethanesulfonamido-2,4-difluorophenyl)-1-(propan-2-yl)-1H-pyrazol-4-yl]pyrimidin-2-yl}amino)propan-2-yl]carbamate] | 14 nM
COC(=O)N[C@@H](C)CNc1nccc(-c2cn(C(C)C)nc2-c2cc(F)cc(NS(C)(=O)=O)c2Cl)n1 [Compound 15, Methyl N-[(2S)-1-({4-[3-(2-chloro-5-fluoro-3-methanesulfonamidophenyl)-1-(propan-2-yl)-1H-pyrazol-4-yl]pyrimidin-2-yl}amino)propan-2-yl]carbamate] | 4 nM
COC(=O)N[C@@H](C)CNc1nccc(-c2cn(C(C)C)nc2-c2ccnc(NS(C)(=O)=O)c2F)n1 [Compound 16, methyl N-[(2S)-1-({4-[3-(3-fluoro-2-methanesulfonamidopyridin-4-yl)-1-(propan-2-yl)-1H-pyrazol-4-yl]pyrimidin-2-yl}amino)propan-2-yl]carbamate] | 1400 nM
CCn1cc(-c2ccnc(NC[C@H](C)NC(=O)OC)n2)c(-c2cc(Cl)cc(NS(C)(=O)=O)c2F)n1 [Compound 11, methyl N-[(2S)-1-({4-[3-(5-chloro-2-fluoro-3-methanesulfonamidophenyl)-1-ethyl-1H-pyrazol-4-yl]pyrimidin-2-yl}amino)propan-2-yl]carbamate] | 3 nM
CCCS(=O)(=O)Nc1cc(Cl)cc(-c2nn(C(C)C)cc2-c2ccnc(NC[C@H](C)NC(=O)OC)n2)c1F [Compound 1, Methyl N-[(2S)-1-[(4-{3-[5-chloro-2-fluoro-3-(propane-1-sulfonamido)phenyl]-1-(propan-2-yl)-1H-pyrazol-4-yl]pyrimidin-2-yl)amino]propan-2-yl]carbamate] | 2 nM
COC(=O)N[C@@H](C)CNc1nccc(-c2cn(C(C)C)nc2-c2cc(F)cc(NS(C)(=O)=O)c2F)n1 [Compound 10, methyl N-[(2S)-1-({4-[3-(2,5-difluoro-3-methanesulfonamidophenyl)-1-(propan-2-yl)-1H-pyrazol-4-yl]pyrimidin-2-yl]amino)propan-2-yl]carbamate] | 3 nM
COC(=O)N[C@@H](C)CNc1nccc(-c2cn(C(C)C)nc2-c2ccnc(NS(C)(=O)=O)c2Cl)n1 [Compound 14, methyl N-[(2S)-1-({4-[3-(3-chloro-2-methanesulfonamidopyridin-4-yl)-1-(propan-2-yl)-1H-pyrazol-4-yl]pyrimidin-2-yl}amino)propan-2-yl]carbamate] | 79 nM
CC(C)n1cc(-c2ccnc(N)n2)c(-c2cc(Cl)cc(NS(C)(=O)=O)c2F)n1 [Compound 30, N-{3-[4-(2-aminopyrimidin-4-yl)-1-(propan-2-yl)-1H-pyrazol-3-yl]-5-chloro-2-fluorophenyl}methanesulfonamide] | 69 nM
COC(=O)N[C@@H](C)CNc1nccc(-c2cn(C(C)C)nc2-c2cc(F)c(F)c(NS(C)(=O)=O)c2F)n1 [Compound 21, methyl N-[(2S)-1-({4-[1-(propan-2-yl)-3-(2,4,5-trifluoro-3-methanesulfonamidophenyl)-1H-pyrazol-4-yl]pyrimidin-2-yl}amino)propan-2-yl]carbamate] | 45 nM
COC(=O)N[C@@H](C)CNc1nccc(-c2cn(C(C)C)nc2-c2cccc(NS(=O)(=O)CCC(F)(F)F)c2F)n1 [Compound 8] | 27 nM
CC(C)n1cc(-c2ccnc(NCCC#N)n2)c(-c2cc(Cl)cc(NS(C)(=O)=O)c2F)n1 [Compound 17, N-[5-chloro-3-(4-{2-[(2-cyanoethyl)amino]pyrimidin-4-yl}-1-(propan-2-yl)-1H-pyrazol-3-yl)-2-fluorophenyl]methanesulfonamide] | 2 nM

Test system: not listed separately
Test: Liver Microsomal Clearance Assay (human)
Type: in vitro ADME
Conditions: extraction ratio, human liver microsomes, 1 μM compound
Method: (§1) The in vitro microsomal clearance assay is designed to assess potential risks associated with hepatic metabolic stability of compounds. The test compound (1 μM) was incubated with liver microsomes (0.5 mg/mL) from different species (mouse, rat, monkey, dog and human) and NADPH (1 mM) in 100 mM potassium phosphate buffer at 37° C. At specific reaction time points (0, 5, 10 and 30 minutes), reaction aliquots were removed and reactions were terminated by addition of ice cold acetonitrile containing mass spectrometry internal standard. The samples were centrifuged and the supernatants were analyzed by LC-MS/MS. In vitro metabolic half-life (t1/2, min) and intrinsic clearance (CLint, μL/min/mg) are based on the rate and extent of metabolism of the test compound as determined by the disappearance of the parent compound from the reaction mixture. These values may be scaled to predict hepatic metabolic clearance rate (CLh, mL/min/kg) and extraction ratio (ER, expressed as a ratio of the predicted hepatic metabolic clearance to hepatic blood flow in that species). In general, compounds with high predictedCLint or ER in vitro are considered to be at high risk for exposure-limiting metabolism in vivo.

SMILES | ER Human
COC(=O)N[C@@H](C)CNc1nccc(-c2cn(C(C)C)nc2-c2cccc(NS(C)(=O)=O)c2F)n1 [Compound 4, methyl N-[(2S)-1-({4-[3-(2-fluoro-3-methanesulfonamidophenyl)-1-(propan-2-yl)-1H-pyrazol-4-yl]pyrimidin-2-yl}amino)propan-2-yl]carbamate] | <0.31
COC(=O)N[C@@H](C)CNc1nccc(-c2cn(C(C)C)nc2-c2c(F)ccc(NS(C)(=O)=O)c2F)n1 [Compound 6, methyl N-[(2S)-1-({4-[3-(2,6-difluoro-3-methanesulfonamidophenyl)-1-(propan-2-yl)-1H-pyrazol-4-yl]pyrimidin-2-yl]amino)propan-2-yl]carbamate] | 0.69
CCCS(=O)(=O)Nc1cc(Cl)cc(-c2nn(C(C)C)cc2-c2ccnc(NC[C@H](C)NC(=O)OC)n2)c1F [Compound 1, Methyl N-[(2S)-1-[(4-{3-[5-chloro-2-fluoro-3-(propane-1-sulfonamido)phenyl]-1-(propan-2-yl)-1H-pyrazol-4-yl]pyrimidin-2-yl)amino]propan-2-yl]carbamate] | 0.66

Test system: not listed separately
Test: Liver Microsomal Clearance Assay (mouse)
Type: in vitro ADME
Conditions: extraction ratio, mouse liver microsomes, 1 μM compound
Method: as §1

SMILES | ER Mouse
COC(=O)N[C@@H](C)CNc1nccc(-c2cn(C(C)C)nc2-c2cccc(NS(C)(=O)=O)c2F)n1 [Compound 4, methyl N-[(2S)-1-({4-[3-(2-fluoro-3-methanesulfonamidophenyl)-1-(propan-2-yl)-1H-pyrazol-4-yl]pyrimidin-2-yl}amino)propan-2-yl]carbamate] | 0.40
CCCS(=O)(=O)Nc1cc(Cl)cc(-c2nn(C(C)C)cc2-c2ccnc(NC[C@H](C)NC(=O)OC)n2)c1F [Compound 1, Methyl N-[(2S)-1-[(4-{3-[5-chloro-2-fluoro-3-(propane-1-sulfonamido)phenyl]-1-(propan-2-yl)-1H-pyrazol-4-yl]pyrimidin-2-yl)amino]propan-2-yl]carbamate] | 0.79
